Measurements: patent US10961231B2, “NTCP inhibitors” (National Institute of Biological Sciences, Beijing, priority 2018, dated 2021)
pIC50: −log10 of the molar value.

Molecular target: T1, NTCP (Homo sapiens, UniProt Q14973)
T1 sequence (Q14973 1-349): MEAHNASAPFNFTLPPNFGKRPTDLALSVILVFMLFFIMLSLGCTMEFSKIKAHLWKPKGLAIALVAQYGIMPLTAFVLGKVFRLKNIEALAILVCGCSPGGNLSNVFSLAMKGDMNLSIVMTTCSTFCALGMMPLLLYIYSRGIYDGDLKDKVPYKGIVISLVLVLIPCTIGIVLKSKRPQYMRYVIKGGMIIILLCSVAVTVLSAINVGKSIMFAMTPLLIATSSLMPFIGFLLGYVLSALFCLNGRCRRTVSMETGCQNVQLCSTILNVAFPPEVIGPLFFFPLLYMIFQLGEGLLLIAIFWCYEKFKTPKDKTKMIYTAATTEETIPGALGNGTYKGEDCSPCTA
Assay: [3H]-TCA uptake assay (NTCP inhibition)
Format: cell-based
Details: for IC50: assay not given; for pIC50: marked * (asterisk not explained)
Procedure: [^3H]-TCA uptake assay. PTH and HepG2-NTCP cells were cultured in PMM for 24 hours to induce NTCP expression. After treated by DMSO or test compounds for 2 hours, the cells were then incubated with 1 μM [^3H]-taurocholate acid dissolved in Na^+ Ringer's buffer (the concentration of Na was 145 mM) for 15 minutes at 37° C. Subsequently, the cells were washed once in phosphate-buffered saline (PBS) and lysed in 50 μL 1% TritonX-100 in H2O for 5 minutes at room temperature. The lysate were totally transferred into a liquid scintillation 96 well plate and mixed with 200 μL liquid scintillation cocktail (Ultima Gold XR, PerkinElmer). Liquid scintillation counting was performed on a PerkinElmer 1450 LSC liquid scintillation counter.

SMILES	IC50 (given as a range) [nM]	further results
CCCCc1ccc(SC2CC(C)C(C3C(=O)NC(CC)C(=O)N(C)CC(=O)N(C)C(CC(C)C)C(=O)NC(C(C)C)C(=O)N(C)C(CC(C)C)C(=O)NC(C)C(=O)NC(C)C(=O)N(C)C(CC(C)C)C(=O)N(C)C(CC(C)C)C(=O)N(C)C(C(C)C)C(=O)N3C)O2)cc1 [Compound 8A, [2-((2R,3R)-5-(4-butylphenylthio)-3-methyltetrahydrofuran-2-yl)-2-(methylamino)acetic acid]^1-cyclosporin A]	1 to 1000	
CCOc1cc(OC2CC(C)C(C3C(=O)NC(CC)C(=O)N(C)CC(=O)N(C)C(CC(C)C)C(=O)NC(C(C)C)C(=O)N(C)C(CC(C)C)C(=O)NC(C)C(=O)NC(C)C(=O)N(C)C(CC(C)C)C(=O)N(C)C(CC(C)C)C(=O)N(C)C(C(C)C)C(=O)N3C)O2)ccc1Cl (centres unmarked) [Compound 41A-o]		pIC50 (IC50, given as a range): 4.00 to 6.00
CCC1NC(=O)C(C2OC(OCc3cccc(Cl)c3OC)CC2C)N(C)C(=O)C(C(C)C)N(C)C(=O)C(CC(C)C)N(C)C(=O)C(CC(C)C)N(C)C(=O)C(C)NC(=O)C(C)NC(=O)C(CC(C)C)N(C)C(=O)C(C(C)C)NC(=O)C(CC(C)C)N(C)C(=O)CN(C)C1=O (single isomer, unassigned) [Compound 88A]	1 to 1000	
CCC1NC(=O)C(C2OC(OCc3cc(Cl)cc(Cl)c3)CC2C)N(C)C(=O)C(C(C)C)N(C)C(=O)C(CC(C)C)N(C)C(=O)C(CC(C)C)N(C)C(=O)C(C)NC(=O)C(C)NC(=O)C(CC(C)C)N(C)C(=O)C(C(C)C)NC(=O)C(CC(C)C)N(C)C(=O)CN(C)C1=O [Compound 91B, [2-((2R,3R)-5-(3,5-dichlorobenzyloxy)-3-methyltetrahydrofuran-2-yl)-2-(methylamino)acetic acid]^1-cyclosporin A]	1 to 1000	
CCC1NC(=O)C(C2OC(OCc3cc(Cl)c(F)cc3Cl)CC2C)N(C)C(=O)C(C(C)C)N(C)C(=O)C(CC(C)C)N(C)C(=O)C(CC(C)C)N(C)C(=O)C(C)NC(=O)C(C)NC(=O)C(CC(C)C)N(C)C(=O)C(C(C)C)NC(=O)C(CC(C)C)N(C)C(=O)CN(C)C1=O (centres unmarked) [Compound 103]		pIC50 (IC50, given as a range): 4.00 to 6.00
CCC1NC(=O)C(C2OC(SCc3cc(Cl)cc(Cl)c3)CC2C)N(C)C(=O)C(C(C)C)N(C)C(=O)C(CC(C)C)N(C)C(=O)C(CC(C)C)N(C)C(=O)C(C)NC(=O)C(C)NC(=O)C(CC(C)C)N(C)C(=O)C(C(C)C)NC(=O)C(CC(C)C)N(C)C(=O)CN(C)C1=O [Compound 91A-s, [2-((2R,3R)-5-(3,5-dichlorobenzylthio)-3-methyltetrahydrofuran-2-yl)-2-(methylamino)acetic acid]^1-cyclosporin A]	1 to 1000	
CCC1NC(=O)C(C2OC(OCc3cc(F)c(Cl)cc3Cl)CC2C)N(C)C(=O)C(C(C)C)N(C)C(=O)C(CC(C)C)N(C)C(=O)C(CC(C)C)N(C)C(=O)C(C)NC(=O)C(C)NC(=O)C(CC(C)C)N(C)C(=O)C(C(C)C)NC(=O)C(CC(C)C)N(C)C(=O)CN(C)C1=O (single isomer, unassigned) [Compound 101B]	1 to 1000	
CCC1NC(=O)C(C2OC(Sc3cccc(NCc4ccccc4)c3)CC2C)N(C)C(=O)C(C(C)C)N(C)C(=O)C(CC(C)C)N(C)C(=O)C(CC(C)C)N(C)C(=O)C(C)NC(=O)C(C)NC(=O)C(CC(C)C)N(C)C(=O)C(C(C)C)NC(=O)C(CC(C)C)N(C)C(=O)CN(C)C1=O [Compound 48A, [2-((2R,3R)-5-(3-(benzylamino)phenylthio)-3-methyltetrahydrofuran-2-yl)-2-(methylamino)acetic acid]^1-cyclosporin A]	1 to 1000	
CCC1NC(=O)C(C2OC(Sc3cc(OC)cc(OCC4CCOCC4)c3)CC2C)N(C)C(=O)C(C(C)C)N(C)C(=O)C(CC(C)C)N(C)C(=O)C(CC(C)C)N(C)C(=O)C(C)NC(=O)C(C)NC(=O)C(CC(C)C)N(C)C(=O)C(C(C)C)NC(=O)C(CC(C)C)N(C)C(=O)CN(C)C1=O (centres unmarked) [Compound 66]		pIC50 (given as a range): 4.00 to 6.00
CCC1NC(=O)C(C2OC(Oc3cc(OC)cc(OCc4ccccc4)c3)CC2C)N(C)C(=O)C(C(C)C)N(C)C(=O)C(CC(C)C)N(C)C(=O)C(CC(C)C)N(C)C(=O)C(C)NC(=O)C(C)NC(=O)C(CC(C)C)N(C)C(=O)C(C(C)C)NC(=O)C(CC(C)C)N(C)C(=O)CN(C)C1=O (centres unmarked) [Compound 65-o]		pIC50 (given as a range): 4.00 to 6.00
CCC1NC(=O)C(C2OC(Sc3cccc(O)c3)CC2C)N(C)C(=O)C(C(C)C)N(C)C(=O)C(CC(C)C)N(C)C(=O)C(CC(C)C)N(C)C(=O)C(C)NC(=O)C(C)NC(=O)C(CC(C)C)N(C)C(=O)C(C(C)C)NC(=O)C(CC(C)C)N(C)C(=O)CN(C)C1=O [Compound 25A, [2-((2R,3R)-5-(3-hydroxyphenylthio)-3-methyltetrahydrofuran-2-yl)-2-(methylamino)acetic acid]^1-cyclosporine A]	1 to 1000	
CCC1NC(=O)C(C2OC(Sc3ccc(OC)c(OC)c3)CC2C)N(C)C(=O)C(C(C)C)N(C)C(=O)C(CC(C)C)N(C)C(=O)C(CC(C)C)N(C)C(=O)C(C)NC(=O)C(C)NC(=O)C(CC(C)C)N(C)C(=O)C(C(C)C)NC(=O)C(CC(C)C)N(C)C(=O)CN(C)C1=O [Compound 37A, [2-((2R,3R)-5-(3,4-dimethoxyphenylthio)-3-methyltetrahydrofuran-2-yl)-2-(methylamino)acetic acid]^1-cyclosporin A]	1 to 1000	
CCC1NC(=O)C(C2OC(OC(C)c3ccccc3)CC2C)N(C)C(=O)C(C(C)C)N(C)C(=O)C(CC(C)C)N(C)C(=O)C(CC(C)C)N(C)C(=O)C(C)NC(=O)C(C)NC(=O)C(CC(C)C)N(C)C(=O)C(C(C)C)NC(=O)C(CC(C)C)N(C)C(=O)CN(C)C1=O (single isomer, unassigned) [Compound 79A]	1 to 1000	
CCC1NC(=O)C(C2OC(Sc3cc(OCCOC)cc(OCC4CCOCC4)c3)CC2C)N(C)C(=O)C(C(C)C)N(C)C(=O)C(CC(C)C)N(C)C(=O)C(CC(C)C)N(C)C(=O)C(C)NC(=O)C(C)NC(=O)C(CC(C)C)N(C)C(=O)C(C(C)C)NC(=O)C(CC(C)C)N(C)C(=O)CN(C)C1=O (centres unmarked) [Compound 55]		pIC50 (given as a range): 4.00 to 6.00
CCC1NC(=O)C(C2OC(OCc3cc(Cl)ccc3Cl)CC2C)N(C)C(=O)C(C(C)C)N(C)C(=O)C(CC(C)C)N(C)C(=O)C(CC(C)C)N(C)C(=O)C(C)NC(=O)C(C)NC(=O)C(CC(C)C)N(C)C(=O)C(C(C)C)NC(=O)C(CC(C)C)N(C)C(=O)CN(C)C1=O [98A + B(1:1), [2-((2R,3R)-5-(2,5-dichlorobenzyloxy)-3-methyltetrahydrofuran-2-yl)-2-(methylamino)acetic acid]^1-cyclosporin A]	1 to 1000	
CCC1NC(=O)C(C2OC(Sc3cccc(OCCc4ccccc4)c3)CC2C)N(C)C(=O)C(C(C)C)N(C)C(=O)C(CC(C)C)N(C)C(=O)C(CC(C)C)N(C)C(=O)C(C)NC(=O)C(C)NC(=O)C(CC(C)C)N(C)C(=O)C(C(C)C)NC(=O)C(CC(C)C)N(C)C(=O)CN(C)C1=O [Compound 35A, [2-((2R,3R)-3-methyl-5-(3-phenethoxyphenylthio)tetrahydrofuran-2-yl)-2-(methylamino)acetic acid]^1-cyclosporin A]	1 to 1000	
CCC1NC(=O)C(C2OC(Sc3cccc(OC(C)C)c3)CC2C)N(C)C(=O)C(C(C)C)N(C)C(=O)C(CC(C)C)N(C)C(=O)C(CC(C)C)N(C)C(=O)C(C)NC(=O)C(C)NC(=O)C(CC(C)C)N(C)C(=O)C(C(C)C)NC(=O)C(CC(C)C)N(C)C(=O)CN(C)C1=O [Compound 30A, [2-((2R,3R)-5-(3-isopropoxyphenylthio)-3-methyltetrahydrofuran-2-yl)-2-(methylamino)acetic acid]^1-cyclosporin]	1 to 1000	
